Experimental data reported in PubChem BioAssay (NCI).
Where “and” joins values, the source holds several entries; their conditions need not be identical. Equal values may be shown once.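 Five compound concentrations were applied to cells in 96-well plates for 48 hours; endpoints were derived by simple linear interpolation of the resulting dose-response curve. GI50 marks 50% less growth. TGI marks complete inhibition of growth.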 Where a SMILES comes first, the peptide text is derived from it. The star is where a group is joined. Trt = c1ccc(C(c2ccccc2)(c2ccccc2)*)cc1; Cbz = O=C(OCc1ccccc1)*

Experiments:
Test in all cases: DTP human tumour cell line panel, 48 h
HL-60(TB) leukemia = system: HL-60(TB) leukemia
NCI-H522 lung = system: NCI-H522 lung
SF-295 CNS = system: SF-295 CNS
SK-MEL-5 melanoma = system: SK-MEL-5 melanoma
MALME-3M melanoma = system: MALME-3M melanoma
M14 melanoma = system: M14 melanoma
SK-MEL-28 melanoma = system: SK-MEL-28 melanoma
IGROV1 ovarian = system: IGROV1 ovarian
SW-620 colon = system: SW-620 colon
MDA-MB-231 breast = system: MDA-MB-231 breast

SMILES	GI50 (HL-60(TB) leukemia)	TGI (HL-60(TB) leukemia)	GI50 (NCI-H522 lung)	TGI (NCI-H522 lung)	GI50 (SF-295 CNS)	TGI (SF-295 CNS)	GI50 (SK-MEL-5 melanoma)	TGI (SK-MEL-5 melanoma)	GI50 (MALME-3M melanoma)	TGI (MALME-3M melanoma)	GI50 (M14 melanoma)	TGI (M14 melanoma)	GI50 (SK-MEL-28 melanoma)	TGI (SK-MEL-28 melanoma)	GI50 (IGROV1 ovarian)	TGI (IGROV1 ovarian)	GI50 (SW-620 colon)	TGI (SW-620 colon)	GI50 (MDA-MB-231 breast)	TGI (MDA-MB-231 breast)
C=CC(C)(O)CC/C=C(\CO)C(=O)OC1C(C)OC(O[C@](C)(C=C)CC/C=C(\CO)C(=O)O[C@H]2C[C@@]3(C(=O)OC4OC(CO)C(O)C(O)C4OC4OC(C)C(OC5OC(CO)C(O)C5O)C(OC5OC(CO)C(O)C(O)C5O)C4O)C(CC2(C)C)C2=CCC4[C@@]5(C)CC[C@H](OC6OC(COC7OC(C)C(O)C(O)C7OC7OCC(O)C(O)C7O)C(O)C(O)C6NC(C)=O)C(C)(C)C5CC[C@@]4(C)[C@]2(C)C[C@H]3O)C(O)C1O (some centres not stated)	0.13 µM	2.53 µM	0.341 µM	1.61 µM	0.083 µM	0.312 µM	1.99 µM	6.22 µM	0.261 µM	1.01 µM	0.62 µM	2.29 µM	0.0852 µM	0.248 µM	2.96 µM	9.63 µM	0.143 µM	4.27 µM	0.0722 µM	0.39 µM
COc1cc(/C=N/NC(=O)c2ccccc2Nc2cccc(C(F)(F)F)c2)cc(OC)c1OC	2.01 µM	4.73 µM	6.1 µM	24.6 µM	0.471 µM	3.04 µM	2.93 µM	10.8 µM	1.75 µM	8.45 µM	3.35 µM	14.4 µM	2.28 µM	8.16 µM	4.19 µM	14.2 µM	1.71 µM	6.36 µM	6.33 µM	20.5 µM
O=Cc1ccc(N2CCN(c3ccc(C=O)cc3)CC2)cc1	> 100 µM	> 100 µM	43.1 µM	> 100 µM	> 100 µM	> 100 µM	> 100 µM	> 100 µM	0.565 µM	> 100 µM	> 100 µM	> 100 µM	> 100 µM	> 100 µM	45.8 µM	> 100 µM	> 100 µM	> 100 µM	> 100 µM	> 100 µM
O=C(/C=C/c1ccc([N+](=O)[O-])cc1)c1cccc(Nc2nc(Nc3ccccc3)nc(Nc3ccccc3)n2)c1	8.82 µM	37.7 µM	12.4 µM	> 100 µM	9.81 µM	> 100 µM	1.13 µM	17.6 µM	38.8 µM	> 100 µM	21.6 µM	90.6 µM	12.5 µM	40.1 µM	0.671 µM	63.1 µM	4.08 µM	65.9 µM	10.7 µM	41.9 µM
COc1ccc(C2=Nc3c/c(=C\c4c(O)[nH]c5cc(Cl)ccc45)ccc3=N2)cc1	1.97 µM	4.84 µM	7.07 µM	29.1 µM	12.3 µM	63.8 µM	10.7 µM	22.7 µM	2.87 µM	12.7 µM	4.17 µM	21.6 µM	1.55 µM	19.9 µM	17.6 µM	50.5 µM	3.01 µM	19 µM	5.23 µM	19.6 µM
Cc1cc(Nc2nc(-c3ccncc3)nc3ccccc23)n[nH]1	10.7 µM	> 100 µM	13.1 µM	> 100 µM	17.4 µM	> 100 µM	52.6 µM	> 100 µM	> 100 µM	> 100 µM	10.3 µM	> 100 µM	88.8 µM	> 100 µM	1.92 µM	> 100 µM	3.71 µM	> 100 µM	14.7 µM	> 100 µM
O=C(C=C=Nc1ccccc1)C(=O)N=C=Cc1ccccc1	1.7 µM	6.98 µM	1.81 µM	4.97 µM	14.5 µM	40.9 µM	5.16 µM	17.7 µM	1.54 µM	5.33 µM	2.16 µM	6.46 µM	1.88 µM	3.85 µM	2.96 µM	12.3 µM	1.72 µM	3.61 µM	3.15 µM	10.4 µM
COC(=O)/C(=N\Nc1nnc(C)n1N)C(C#N)c1ccccc1 (configuration not stated)		> 100 µM		> 100 µM		> 100 µM		> 100 µM		46.5 µM		> 100 µM		> 100 µM		> 100 µM		> 100 µM		> 100 µM
CNC(c1ccncc1)C(NC)c1ccncc1 (configuration not stated)		> 100 µM		> 100 µM		> 100 µM		> 100 µM		> 100 µM		> 100 µM		> 100 µM		> 100 µM		> 100 µM		> 100 µM
Nc1c(C(=O)Nc2cccc3ccccc23)sc2nc3c(cc12)C(=O)CCC3	0.246 µM	0.804 µM	0.057 µM	1.02 µM	0.0779 µM		0.333 µM	4.44 µM	0.841 µM	54.7 µM	0.24 µM	> 100 µM	0.341 µM	53.4 µM	0.52 µM	> 46.7 µM	0.222 µM	> 100 µM	0.379 µM	6.92 µM
COc1ccc(-c2nc(C(=O)c3ccccc3)n(CC(=O)c3ccc(Cl)cc3)c2-c2ccc(OC)cc2)cc1	46 µM	> 100 µM	> 100 µM	> 100 µM	> 100 µM	> 100 µM	> 100 µM	> 100 µM	> 100 µM	> 100 µM	> 100 µM	> 100 µM	> 100 µM	> 100 µM	> 100 µM	> 100 µM	> 100 µM	> 100 µM	> 100 µM	> 100 µM
O=S(=O)(O)SCCNCCCCCC1CCCCC1		> 100 µM		37.3 µM		16.4 µM		31.9 µM		36.2 µM		18.4 µM		18.3 µM		20.7 µM		21.7 µM		30 µM
COC(=O)C(CSC(c1ccccc1)(c1ccccc1)c1ccccc1)NC(=O)C(CC(N)=O)NC(=O)OCc1ccccc1 (stereo not drawn) (Cbz-Asn-Cys(Trt)-OMe; configuration not given here)	2.1 µM	4.39 µM	3.91 µM	18.7 µM	2.96 µM	13.9 µM	3.23 µM	14.4 µM	2.21 µM	12.1 µM	1.68 µM	3.69 µM	3.42 µM	15.4 µM	6.1 µM	25.7 µM	7.34 µM	23.7 µM	2.93 µM	10.9 µM
COc1cccc2c1cc1c3c(cc4c(c32)OCO4)C(=O)N1	7.59 µM	27.8 µM	2.62 µM	8.96 µM	7.27 µM	29.1 µM	4.49 µM	> 100 µM	6.5 µM	> 100 µM	12.1 µM	> 100 µM	13.1 µM	67.2 µM	4.26 µM	34.4 µM	4.4 µM	> 100 µM	7.9 µM	47.2 µM
CC(C(N)=O)N(C)C(=O)c1cnc2ccccc2c1 (configuration not stated)		> 100 µM		> 100 µM		> 100 µM		> 100 µM		> 100 µM		> 100 µM		> 100 µM		> 100 µM		> 100 µM		> 100 µM
Cc1c(Cl)cccc1NC(=O)c1sc2nc3c(cc2c1N)CCCC3	0.305 µM		0.241 µM	0.812 µM	0.346 µM	> 100 µM	0.513 µM	> 100 µM	0.571 µM	> 100 µM	0.39 µM	> 100 µM		> 100 µM	0.82 µM	> 100 µM	0.471 µM	> 100 µM	> 100 µM	> 100 µM
CCCOC(=O)C1C2CCC(O2)C1C(=O)O (configuration not stated)		> 100 µM		> 100 µM		> 100 µM		> 100 µM		> 100 µM		> 100 µM		> 100 µM		> 100 µM		> 100 µM		> 100 µM
O=C1/C(=C\c2ccccc2)C2OCC=C3CN4CCC56c7ccccc7N1C5C2C3CC46 (configuration not stated)	3.47 µM	20.9 µM	8.01 µM	> 100 µM	3.69 µM	24.7 µM	4.84 µM	17.4 µM	4.67 µM	17.9 µM	1.94 µM	3.72 µM	2.61 µM	5.44 µM	4.69 µM	> 100 µM	> 100 µM	> 100 µM	6.92 µM	> 100 µM
Cc1cc(Br)cc(C)c1NC(=O)C(=O)Nn1c(=S)[nH]c2ccccc2c1=O		> 100 µM		> 100 µM		> 100 µM		> 100 µM		> 100 µM		> 100 µM		> 100 µM		> 100 µM		> 100 µM		> 100 µM
Cn1cc(-c2nc(N[C@@H]3CCCC[C@@H]3N)c(F)c3c2C(=O)NC3)cn1	9.21 µM and 11.2 µM	37 µM and 40.9 µM	12.8 µM and 13.1 µM	66.5 µM and > 91.1 µM	3.95 µM and 3.5 µM	> 77.2 µM	29.2 µM and 22.6 µM	> 100 µM	11 µM and 9.57 µM	35.2 µM and 50.5 µM	1.56 µM and 1.67 µM	> 96.1 µM	8.96 µM and 10.8 µM	> 100 µM	5 µM and 5.65 µM	> 68.9 µM	4.26 µM and 5 µM	> 100 µM	5.04 µM and 6.15 µM	26.2 µM and 31.9 µM
O=C(/C=C/c1ccco1)c1ccc(Nc2nc(Nc3ccc(F)cc3)nc(Nc3ccc(F)cc3)n2)cc1	17.5 µM	52.9 µM	21.4 µM	74.6 µM	23.8 µM	48.9 µM	27 µM	> 100 µM	43.7 µM	> 100 µM	12.8 µM	30.5 µM	18.3 µM	44.3 µM	10.7 µM	29.6 µM	19 µM	> 100 µM	23.7 µM	> 100 µM
O=C(NOCCO)c1cc(CN2OCCCC2=O)c(F)c(F)c1Nc1ccc(I)cc1F	< 0.01 µM and 0.00194 µM	> 57 µM	18.3 µM and > 7.9 µM	> 65.4 µM	16.9 µM and > 10 µM	> 75.4 µM	0.597 µM	23.9 µM and > 10 µM	< 0.01 µM and 0.00185 µM	< 0.01 µM	< 0.01 µM and 0.00226 µM	0.0237 µM	< 0.01 µM and 0.00249 µM	0.0712 µM and 0.124 µM	0.101 µM and 0.0246 µM	> 52.5 µM	< 0.01 µM and 0.00529 µM	> 100 µM	0.243 µM and 0.116 µM	62.2 µM and > 10 µM
Cc1cc2nc3c4ccc(Br)cc4n(CCN(C)C)c3nc2cc1C	1.45 µM	5.68 µM	1.99 µM	4.66 µM	0.804 µM	2.91 µM	1.72 µM	3.12 µM	1.44 µM	2.92 µM	1.55 µM	3.39 µM	1.69 µM	3.12 µM	1.12 µM	3.97 µM	0.478 µM	1.84 µM	1.97 µM	7.45 µM
O=C(/C=C/c1cccc2ccccc12)Nc1ncc(Cc2ccccc2)s1	0.669 µM	3.58 µM	0.703 µM	> 32.8 µM	0.443 µM	2.33 µM	1.8 µM	> 100 µM	0.627 µM	> 100 µM	0.649 µM	3.79 µM	3.89 µM	> 100 µM	1.27 µM	> 87.3 µM	0.737 µM	> 100 µM	2 µM	> 40.3 µM
CCCN1CCC=C(c2ccc(Nc3nc(Nc4ccccc4C(N)=O)c4cc[nH]c4n3)c(C)c2)C1	0.387 µM	6.84 µM	8.66 µM	> 25 µM	> 25 µM	> 25 µM	13.2 µM	> 25 µM	5.35 µM	> 25 µM	4.77 µM	> 25 µM	> 23.8 µM	> 25 µM	8.29 µM	> 25 µM	1.48 µM	> 25 µM	> 16.6 µM	> 25 µM
